Test results: ChEMBL document CHEMBL3886358, “Quinolyl-containing hydroxamic acid compound and preparation method thereof, and pharmaceutical composition containing this compound and use thereof” (2015)

What was measured:
Histone deacetylase 1 = Histone deacetylase 1 (Homo sapiens, UniProt Q13547); test: (§1) Inhibition Assay: The inhibitions of activities of HDAC enzymes by the compounds N1'-[3-fluoro-4-[[7-[4-(hydroxyamino)-4-oxobutoxy]-6-methoxy-4-quinolyl]oxy]phenyl]-N1-(4-fluoro phenyl)cyclopropane-1,1-dicarboxamide prepared in Example 9 and N1'-[3-fluoro-4-[[7-[6-(hydroxyamino)-6-oxohexyloxy]-6-methoxy-4-quinolyl]oxy]phenyl]-N1-(4-fluo rophenyl)cyclopropane-1,1-dicarboxamide prepared in Example 13 were measured by Reaction Biology Corporation (Reaction Biology Corp., One Great Valley Parkway, Suite 2, Malvern, PA 19355, USA . http://www.reactionbiology.com/pages/hdac.htm). The HDAC enzymes tested include the following 11 HDAC isoforms: HDAC1, HDAC2, HDAC3, HDAC4, HDAC5, HDAC6, HDAC7, HDAC8, HDAC9, HDAC10 and HDAC11.Specific steps were as follows: The compound of the present invention was dissolved in dimethyl sulfoxide (DMSO) to make a stock solution of 10 mM. The stock solution was diluted in 4-fold series starting from 10 mM to prepare 10 different dosages.
Histone deacetylase 7 = molecular target: T1, Histone deacetylase 7 (Homo sapiens, UniProt Q8WUI4); test: as §1
T1 sequence (Q8WUI4 whole entry): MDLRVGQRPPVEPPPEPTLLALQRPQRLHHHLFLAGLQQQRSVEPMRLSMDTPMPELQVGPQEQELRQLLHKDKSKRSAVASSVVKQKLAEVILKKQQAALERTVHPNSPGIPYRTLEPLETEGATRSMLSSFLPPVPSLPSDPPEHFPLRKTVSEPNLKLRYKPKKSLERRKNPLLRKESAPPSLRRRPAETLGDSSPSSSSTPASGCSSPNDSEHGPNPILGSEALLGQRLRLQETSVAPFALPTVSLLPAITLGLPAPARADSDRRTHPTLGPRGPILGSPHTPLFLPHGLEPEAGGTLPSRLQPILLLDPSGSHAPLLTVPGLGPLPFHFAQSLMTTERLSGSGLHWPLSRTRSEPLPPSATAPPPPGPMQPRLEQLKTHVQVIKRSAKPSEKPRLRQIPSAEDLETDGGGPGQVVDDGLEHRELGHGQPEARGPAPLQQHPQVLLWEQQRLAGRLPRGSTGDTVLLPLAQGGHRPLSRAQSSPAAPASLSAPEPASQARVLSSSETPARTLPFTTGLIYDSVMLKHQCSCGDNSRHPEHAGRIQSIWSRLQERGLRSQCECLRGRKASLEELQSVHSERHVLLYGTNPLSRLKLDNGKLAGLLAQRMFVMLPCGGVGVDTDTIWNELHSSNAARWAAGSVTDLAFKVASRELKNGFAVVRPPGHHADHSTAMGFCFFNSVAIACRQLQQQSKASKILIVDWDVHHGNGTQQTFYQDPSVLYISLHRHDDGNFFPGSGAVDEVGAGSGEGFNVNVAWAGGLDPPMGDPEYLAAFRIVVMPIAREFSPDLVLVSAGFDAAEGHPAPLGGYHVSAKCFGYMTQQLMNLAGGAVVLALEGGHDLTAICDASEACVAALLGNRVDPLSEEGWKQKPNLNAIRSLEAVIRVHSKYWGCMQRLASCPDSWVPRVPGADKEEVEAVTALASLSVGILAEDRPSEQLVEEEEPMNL

[1] = molecular target: T2, Protein deacetylase HDAC6 (Homo sapiens, UniProt Q9UBN7); test: as §1
T2 sequence (Q9UBN7 whole entry): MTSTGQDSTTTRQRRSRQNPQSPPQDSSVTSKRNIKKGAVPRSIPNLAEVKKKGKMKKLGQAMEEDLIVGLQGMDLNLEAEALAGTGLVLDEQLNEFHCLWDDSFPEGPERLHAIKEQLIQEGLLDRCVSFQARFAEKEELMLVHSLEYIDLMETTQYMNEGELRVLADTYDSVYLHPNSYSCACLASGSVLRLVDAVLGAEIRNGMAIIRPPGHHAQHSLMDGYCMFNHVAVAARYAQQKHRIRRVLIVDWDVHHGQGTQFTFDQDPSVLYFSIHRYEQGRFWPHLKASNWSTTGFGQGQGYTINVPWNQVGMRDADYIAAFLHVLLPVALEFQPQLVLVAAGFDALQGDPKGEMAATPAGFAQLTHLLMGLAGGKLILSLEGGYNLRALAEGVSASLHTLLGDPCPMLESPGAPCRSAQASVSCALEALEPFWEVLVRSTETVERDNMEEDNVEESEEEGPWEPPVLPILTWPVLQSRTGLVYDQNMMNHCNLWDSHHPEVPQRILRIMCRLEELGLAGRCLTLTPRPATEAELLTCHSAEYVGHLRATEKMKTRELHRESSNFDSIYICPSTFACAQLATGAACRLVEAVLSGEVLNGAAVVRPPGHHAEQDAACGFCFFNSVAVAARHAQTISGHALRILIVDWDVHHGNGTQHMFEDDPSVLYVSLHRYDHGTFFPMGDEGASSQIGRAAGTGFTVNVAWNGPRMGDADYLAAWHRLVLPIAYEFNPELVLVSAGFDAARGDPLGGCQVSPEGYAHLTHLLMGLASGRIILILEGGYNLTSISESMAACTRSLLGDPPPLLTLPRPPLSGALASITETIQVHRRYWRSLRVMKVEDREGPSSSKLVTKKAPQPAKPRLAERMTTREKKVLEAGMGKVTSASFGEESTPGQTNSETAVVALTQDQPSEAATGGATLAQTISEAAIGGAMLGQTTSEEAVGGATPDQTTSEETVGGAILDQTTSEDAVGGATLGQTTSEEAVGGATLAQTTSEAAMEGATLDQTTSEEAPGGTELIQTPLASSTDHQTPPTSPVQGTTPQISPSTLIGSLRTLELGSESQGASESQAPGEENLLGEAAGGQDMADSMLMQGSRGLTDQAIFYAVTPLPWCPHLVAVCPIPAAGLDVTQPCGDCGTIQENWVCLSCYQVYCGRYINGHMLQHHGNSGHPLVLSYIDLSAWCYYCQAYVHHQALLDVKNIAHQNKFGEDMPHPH

Histone deacetylase 11 = molecular target: T3, Histone deacetylase 11 (Homo sapiens, UniProt Q96DB2); test: as §1
T3 sequence (Q96DB2 whole entry): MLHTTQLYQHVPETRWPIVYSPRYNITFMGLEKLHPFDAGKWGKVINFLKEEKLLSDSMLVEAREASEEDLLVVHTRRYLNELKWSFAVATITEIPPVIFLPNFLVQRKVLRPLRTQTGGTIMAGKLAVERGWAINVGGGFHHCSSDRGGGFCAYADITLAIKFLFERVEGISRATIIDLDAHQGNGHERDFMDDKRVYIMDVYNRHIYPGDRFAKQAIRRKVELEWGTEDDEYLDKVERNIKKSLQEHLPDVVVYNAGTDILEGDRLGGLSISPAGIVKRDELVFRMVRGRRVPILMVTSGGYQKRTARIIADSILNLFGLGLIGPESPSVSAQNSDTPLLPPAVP

Sequence of Histone deacetylase 1 (Q13547 whole entry, canonical isoform): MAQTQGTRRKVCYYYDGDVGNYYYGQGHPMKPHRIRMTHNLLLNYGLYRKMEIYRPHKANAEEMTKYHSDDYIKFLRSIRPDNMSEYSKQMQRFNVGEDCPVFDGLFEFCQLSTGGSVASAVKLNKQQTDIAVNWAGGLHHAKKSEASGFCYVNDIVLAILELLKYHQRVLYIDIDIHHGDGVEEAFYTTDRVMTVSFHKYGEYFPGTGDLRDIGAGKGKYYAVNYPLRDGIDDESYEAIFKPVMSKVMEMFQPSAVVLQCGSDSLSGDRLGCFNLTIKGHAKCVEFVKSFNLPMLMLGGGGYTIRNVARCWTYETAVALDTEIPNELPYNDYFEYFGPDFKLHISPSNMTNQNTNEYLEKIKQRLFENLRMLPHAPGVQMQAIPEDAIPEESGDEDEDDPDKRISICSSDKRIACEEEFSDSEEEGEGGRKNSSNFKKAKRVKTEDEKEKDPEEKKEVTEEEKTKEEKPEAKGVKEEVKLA

| SMILES | IC50 (Histone deacetylase 1) | IC50 (Histone deacetylase 7) | IC50 [1] | IC50 (Histone deacetylase 11) |
| --- | --- | --- | --- | --- |
| COc1cc2c(Oc3ccc(NC(=O)C4(C(=O)Nc5ccc(F)cc5)CC4)cc3F)ccnc2cc1OCCCCCC(=O)NO | > 10 µM | > 10 µM | 0.0083 µM | 6.13 µM |
| COc1cc2c(Oc3ccc(NC(=O)C4(C(=O)Nc5ccc(F)cc5)CC4)cc3F)ccnc2cc1OCCCC(=O)NO | > 10 µM | > 10 µM | 0.242 µM | > 10 µM |
